Literature values, collected in patent US6211152A, “Formulations for peptide release” (Peptech Limited, priority 1995, dated 2001).

Key:
dogs/bitches = conditions: overdosing dogs/bitches
prostate cancer in rats = conditions: microencapsulated form, controlled dose over 30 days, vs daily subcutaneous equivalent or double doses of free peptide

Molecule: CC(C)C[C@H](NC(=O)[C@@H](Cc1ccc2ccccc2c1)NC(=O)[C@H](Cc1ccc(O)cc1)NC(=O)[C@H](CO)NC(=O)[C@H](Cc1c[nH]c2ccccc12)NC(=O)[C@H](Cc1c[nH]cn1)NC(=O)[C@@H]1CCC(=O)N1)C(=O)N[C@@H](CCCNC(=N)N)C(=O)N1CCC[C@H]1C(=O)NCC(N)=O [nafarelin]
- period of shut down of reproductive function (dogs/bitches): three to eighteen

Molecule: [D Trp^6 ] LH-RH
- suppressing serum testosterone levels and prostate tumour weight (prostate cancer in rats): more effective
